Test results published in patent US20100081200A1, “FORMULATIONS AND METHODS FOR CULTURING STEM CELLS” (priority 2007, published 2010).

Legend:
[1] = test system: embryonic stem cells; assay: Effect of lithium chloride on embryonic stem cells; assay type: cell-based
Description: Thus, in some specific embodiments, the serum replacement is devoid lithium chloride.

[2] = test system: embryonic stem cell colonies; assay: Effect of fetuin and α-fetoprotein on growth rate and size of embryonic stem cell colonies; assay type: cell-based; conditions: human serum albumin 10 mg/ml
Procedure: All formulations shown contained human serum albumin at a concentration of 10 mg/ml.
The composition of the formulation according to this embodiment of the present invention was further optimized as described above in Table 2.

Row | Molecule | effect on embryonic stem cells [1] | concentration that increased colony size and growth rate the most [2] [mg/mL]
1 | [Cl-].[Li+] [lithium chloride] | may be harmful for embryonic stem cells resulting in differentiation | 
2 | A: α-fetoprotein, commercially available fetal carrier protein (protein, UniProt P02771 19-609, looked up) Alpha-fetoprotein: RTLHRNEYGIASILDSYQCTAEISLADLATIFFAQFVQEATYKEVSKMVKDALTAIEKPTGDEQSSGCLENQLPAFLEELCHEKEILEKYGHSDCCSQSEEGRHNCFLAHKKPTPASIPLFQVPEPVTSCEAYEEDRETFMNKFIYEIARRHPFLYAPTILLWAARYDKIIPSCCKAENAVECFQTKAATVTKELRESSLLNQHACAVMKNFGTRTFQAITVTKLSQKFTKVNFTEIQKLVLDVAHVHEHCCRGDVLDCLQDGEKIMSYICSQQDTLSNKITECCKLTTLERGQCIIHAENDEKPEGLSPNLNRFLGDRDFNQFSSGEKNIFLASFVHEYSRRHPQLAVSVILRVAKGYQELLEKCFQTENPLECQDKGEEELQKYIQESQALAKRSCGLFQKLGEYYLQNAFLVAYTKKAPQLTSSELMAITRKMAATAATCCQLSEDKLLACGEGAADIIIGHLCIRHEMTPVNPGVGQCCTSSYANRRPCFSSLVVDETYVPPAFSDDKFIFHKDLCQAQGVALQTMKQEFLINLVKQKPQITEEQLEAVIADFSGLLEKCCQGQEQEVCFAEEGQKLISKTRAALGV |  | 0.05
